Results from PMC12263422, “Cryo-EM structure of the human THIK-1 K2P K^+ channel reveals a lower Y gate regulated by lipids and anesthetics” (Nature Structural & Molecular Biology, 2025).
Where “and” joins values, the source holds several entries; their conditions need not be identical. Identical values can stand only once.

Legend:
[1] = tested on: WT THIK-1 (coexpressed with hM1R); assay: Whole-cell currents in transiently transfected HEK-293 cells, GqPCR (hM1-R) mediated activation by Oxo-M, WT THIK-1; assay type: cell-based, human; details: for activation by Oxo-M: 10 μM Oxo-M; for Maximal currents with Oxo-M: THIK-1 WT + M1R
Procedure: (§1) Two-electrode voltage–clamp (TEVC) studies were performed in Xenopus oocytes. All animal use conformed to the Guide for the Care and Use of Laboratory Animals (NIH Publication 85–23), and all experiments using Xenopus toads were approved by the local ethics panels. Oocytes were stored at 17 °C in ND96 recording solution composed of (in mM): 96 NaCl, 2 KCl, 1.8 CaCl2, 1 MgCl2, 5 HEPES (pH 7.5 adjusted with NaOH and HCl), supplemented with Na-pyruvate (275 mg L^–1), theophylline (90 mg L^–1) and gentamicin (50 mg L^–1). Oocytes were injected with 1 ng mRNA for WT or mutant channels, and were incubated for 24–48 h at 17 °C. Two-electrode voltage clamp recordings were then performed as previously described[42],[43]. For macroscopic patch–clamp measurements, oocytes were obtained as described above incubated at 17 °C in a solution containing (mM): 54 NaCl, 30 KCl, 2.4 NaHCO3, 0.82 MgSO4 ×7 H2O, 0.41 CaCl2, 0.33 Ca(NO3)2 ×4 H2O and 7.5 TRIS (pH 7.4 adjusted with NaOH and HCl) for 1–4 days before use. Excised patch recordings in inside-out configuration conditions were performed at room temperature. Patch pipettes were made from thick-walled borosilicate glass GB 200TF-8P (Science Products), had resistances of 0.2–0.5 MΩ (tip diameter, 10–25 µm) and filled with a pipette solution (in mM): 120 KCl, 10 HEPES and 3.6 CaCl2 (pH 7.4 adjusted with KOH and HCl). Intracellular bath solutions and compounds were applied to the cytoplasmic side of excised patches for the various K^+ channels through a gravity flow multi-barrel pipette system. The intracellular solution had the following composition (in mM): 120 KCl, 10 HEPES, 2 EGTA and 1 pyrophosphate (pH adjusted with KOH and HCl). Currents were recorded with an EPC10 amplifier (HEKA Electronics) and sampled at 10 kHz or higher, with filtering set to 3 kHz (–3 dB) or higher, as appropriate for sampling rate. For measurements of GPCR activation, whole-cell currents were recorded for THIK-1 in transiently transfected HEK-293 cells. Cells were stimulated by a ramp protocol between −100 and +60 mV (holding potential, −80 mV). The pipette solution was composed of (in mM): 140 KCl, 2 MgCl2, 1 CaCl2, 2.5 EGTA and 10 HEPES (pH 7.3 adjusted with KOH and HCl). The extracellular bath solution had the following composition (in mM): 135 NaCl, 5 KCl, 2 MgCl2, 2 CaCl2, 10 glucose and 10 HEPES pH (pH 7.3 adjusted with NaOH and HCl). Oxotremorine M (Oxo-M) was added to extracellular bath solution to obtain the final concentration. Single-channel currents were recorded with an Axopatch 200B amplifier through a Digidata 1440A digitizer (Molecular Devices). Data were filtered at 2 kHz and recorded at a 200-kHz sampling rate with the program Clampex (Molecular Devices). […]

[2] = tested on: THIK-1-Y273A (coexpressed with hM1R); assay: Whole-cell currents in transiently transfected HEK-293 cells, GqPCR (hM1-R) mediated activation by Oxo-M, THIK-1-Y273A; assay type: cell-based, human; details: for Maximal currents with Oxo-M: THIK-1 Y273A + M1R
Procedure: as §1, with “The intracellular solution had the following composition (in mM): 120 KCl, 10 HEPES, 2 EGTA and 1 pyrophosphate (pH adjusted with KOH and HCl).” left out, “Cells were stimulated by a ramp protocol between −100 and +60 mV (holding potential, −80 mV). The pipette solution was composed of (in mM): 140 KCl, 2 MgCl2, 1 CaCl2, 2.5 EGTA and 10 HEPES (pH 7.3 adjusted with KOH and HCl). The extracellular bath solution had the following composition (in mM): 135 NaCl, 5 KCl, 2 MgCl2, 2 CaCl2, 10 glucose and 10 HEPES pH (pH 7.3 adjusted with NaOH and HCl). Oxotremorine M (Oxo-M) was added to extracellular bath solution to obtain the final concentration.” left out

WT THIK-1 (without M1R) = target: T1, WT THIK-1 (without M1R) (Homo sapiens, UniProt Q9HB14); assay: Whole-cell currents in HEK-293 cells with Oxo-M, WT THIK-1 without M1R; assay type: cell-based; details: THIK-1 WT (no M1R)
T1 construct: expressed in transfected cells; host or cells: HEK-293
Description: Supplement 41594_2025_1497_MOESM2_ESM.xlsx, sheet "ExtData_Fig_S2e" | column: Maximal currents with Oxo-M (%); WT

T1 sequence (Q9HB14 whole entry): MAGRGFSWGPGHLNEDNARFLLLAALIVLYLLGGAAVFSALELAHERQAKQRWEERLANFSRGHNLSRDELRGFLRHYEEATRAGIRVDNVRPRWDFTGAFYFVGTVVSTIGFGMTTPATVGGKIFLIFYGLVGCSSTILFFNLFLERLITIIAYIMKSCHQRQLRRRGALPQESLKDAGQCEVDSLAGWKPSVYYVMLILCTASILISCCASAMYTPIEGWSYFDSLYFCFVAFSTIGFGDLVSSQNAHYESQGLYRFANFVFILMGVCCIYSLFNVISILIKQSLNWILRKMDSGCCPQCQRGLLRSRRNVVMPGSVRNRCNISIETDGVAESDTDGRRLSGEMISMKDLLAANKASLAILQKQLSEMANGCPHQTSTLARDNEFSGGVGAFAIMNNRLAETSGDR

SMILES: C[N+](C)(C)CC#CCN1CCCC1=O [Oxo-M, Oxotremorine M]
- activation by Oxo-M ([1]; WT THIK-1 with hM1-R): ~ 50%
- activation by Oxo-M ([1]; in the absence of hM1-R): no activation
- Maximal currents with Oxo-M ([1]; individual recordings): 172.080% and 208.230% and 131.370% and 127.470% and 125.270% and 149.760% and 113.980% and 121.900% and 146.330% and 151.430% and 123.170% and 131.250% and 181.580% and 173.780% and 155.620% and 228.290% and 290.820% and 139.180% and 66.330% and 107.180% and 88.700%
- Maximal currents with Oxo-M ([1]; mean): 149.22%
- activation by Oxo-M ([2]; 10 μM Oxo-M, THIK-1-Y273A): no activation
- Maximal currents with Oxo-M ([2]; individual recordings): 93.100% and 97.920% and 94.800% and 93.870% and 99.320% and 100.290%
- Maximal currents with Oxo-M ([2]; mean): 96.55%
- Maximal currents with Oxo-M (WT THIK-1 (without M1R); individual recordings): 87.670% and 72.140% and 84.570% and 69.740% and 73.820% and 88.800% and 69.120% and 93.710% and 101.590% and 90.590% and 96.720% and 154.730% and 88.450%
- Maximal currents with Oxo-M (WT THIK-1 (without M1R); mean): 90.13%
